Experimental data: patent US11028072B2, “2,4-diamino-6-ethylpyrimidine derivatives with antimalarial activities against Plasmodium falciparum” (National Science and Technology Development Agency, priority 2015, dated 2021)
Read-outs that look alike come from different tables or passages of the source.

What was measured:
[1] = target: wild type (WT) pfDHFR (Plasmodium falciparum, UniProt P13922, N108S/R59C); experiment: Inhibition of wild type pfDHFR (Ki); format: biochemical
Experimental: (§1) The synthesized 2,4-diamino-6-ethylpyrimdine derivatives as the hydrochloride salts were tested for the activities against Plasmodium falciparum (P. falciparum) according to the standard methods. These include the inhibition of dihydrofolate reductase (DHFR) enzymes of P. falciparum including, wild type (WT) and quadruple mutants (N51IC59RS108NI164L) (QM). The inhibition was expressed as inhibition constants (Ki) in nano molar (nM).

[2] = tested on: P. falciparum V1/S (N51I + C59R + S108 + I164L); experiment: microbe, parasite or virus in culture; format: cell-based, Plasmodium falciparum; conditions: Plasmodium falciparum, read-out: IC50 P. falciparum V1/S
From the text: (§2) In Vitro Antimalarial Activites Against P. falciparum and Cytotoxicity Towards Mammalian Cells (Vero Cells)

[3] = tested on: P. falciparum TM4/8.2 (wild type); experiment: microbe, parasite or virus in culture; format: cell-based, Plasmodium falciparum; conditions: Plasmodium falciparum, read-out: IC50 P. falciparum TM4/8.2 (WT)
From the text: as §2

[4] = target: T1, Human dihydrofolate reductase (hDHFR) (Homo sapiens, UniProt P00374); experiment: Inhibition of human dihydrofolate reductase (Ki); format: biochemical; conditions: human DHFR; hydrochloride salts
T1 sequence (P00374 1-187): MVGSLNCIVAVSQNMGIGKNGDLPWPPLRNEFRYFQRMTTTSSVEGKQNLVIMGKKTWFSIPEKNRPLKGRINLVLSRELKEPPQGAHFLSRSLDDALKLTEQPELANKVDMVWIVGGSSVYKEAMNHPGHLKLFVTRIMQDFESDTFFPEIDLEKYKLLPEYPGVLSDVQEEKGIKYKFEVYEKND

[5] = in vitro; conditions: African green monkey
From the text: as §2

[6] = target: quadruple mutant N51I + C59R + S108N + I164L (QM) pfDHFR (Plasmodium falciparum, UniProt P13922, I164L/N51I); experiment: Inhibition of quadruple mutant pfDHFR (Ki); format: biochemical
Experimental: as §1

[7] = in vitro, quadruple mutant strain V1/S
[8] = in vitro, wild-type strain TM4/8.2

Chain of wild type (WT) pfDHFR (P13922 whole entry R59C/N108S): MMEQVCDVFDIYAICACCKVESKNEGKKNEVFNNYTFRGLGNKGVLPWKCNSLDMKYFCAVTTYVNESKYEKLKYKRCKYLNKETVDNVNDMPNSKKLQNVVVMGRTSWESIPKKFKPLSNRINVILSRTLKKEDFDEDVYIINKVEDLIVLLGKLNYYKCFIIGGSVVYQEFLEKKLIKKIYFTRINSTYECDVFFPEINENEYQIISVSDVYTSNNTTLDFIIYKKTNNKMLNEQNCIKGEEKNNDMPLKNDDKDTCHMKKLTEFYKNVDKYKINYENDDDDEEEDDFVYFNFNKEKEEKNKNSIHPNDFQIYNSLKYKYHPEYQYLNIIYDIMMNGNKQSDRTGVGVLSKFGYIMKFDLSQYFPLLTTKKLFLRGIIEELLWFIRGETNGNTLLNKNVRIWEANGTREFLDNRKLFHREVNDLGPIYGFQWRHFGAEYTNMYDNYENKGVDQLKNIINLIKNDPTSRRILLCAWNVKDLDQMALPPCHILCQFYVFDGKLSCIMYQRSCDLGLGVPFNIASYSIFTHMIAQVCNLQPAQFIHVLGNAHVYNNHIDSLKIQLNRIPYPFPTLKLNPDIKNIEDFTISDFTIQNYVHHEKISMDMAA
Chain of quadruple mutant N51I + C59R + S108N + I164L (QM) pfDHFR (P13922 whole entry N51I/I164L): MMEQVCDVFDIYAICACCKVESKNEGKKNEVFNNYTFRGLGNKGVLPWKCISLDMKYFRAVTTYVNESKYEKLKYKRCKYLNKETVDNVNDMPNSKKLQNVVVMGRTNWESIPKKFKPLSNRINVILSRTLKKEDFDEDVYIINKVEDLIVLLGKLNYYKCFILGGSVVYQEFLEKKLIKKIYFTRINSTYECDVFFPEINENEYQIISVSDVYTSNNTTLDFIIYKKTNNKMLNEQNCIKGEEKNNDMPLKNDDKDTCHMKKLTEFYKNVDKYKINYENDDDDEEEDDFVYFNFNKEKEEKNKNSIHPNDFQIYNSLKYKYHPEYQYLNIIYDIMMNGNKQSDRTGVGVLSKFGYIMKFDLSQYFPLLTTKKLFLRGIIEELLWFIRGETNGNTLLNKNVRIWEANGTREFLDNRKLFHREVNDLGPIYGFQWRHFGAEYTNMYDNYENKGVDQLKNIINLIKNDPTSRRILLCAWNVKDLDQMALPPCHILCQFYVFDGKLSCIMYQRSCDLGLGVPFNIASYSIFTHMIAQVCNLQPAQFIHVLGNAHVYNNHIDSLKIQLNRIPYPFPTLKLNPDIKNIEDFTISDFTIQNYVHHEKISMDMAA

Structure (SMILES)	Ki [1]	IC50 [2, 7]	IC50 [3, 8]	Ki hDHFR [4]	IC50 [5]	Ki [6]	Ki [4]	IC50 [2]	IC50 [3]	Ki pfDHFR N51I + C59R + S108N + I164L (QM) ([6]; quadruple mutant pfDHFR, hydrochloride salts)
CCc1nc(N)nc(N)c1OCc1cn(-c2ccc(C(=O)O)cc2)nn1 [Compound 19]	7.79 ± 1.33 nM	> 10000 nM	> 10000 nM	High	> 10000 nM	671 ± 27.2 nM				
CCc1nc(N)nc(N)c1OCCc1cn(-c2cccc(C(=O)O)c2)nn1 [Compound 20]	0.39 ± 0.06 nM	1740 ± 510 nM	670 ± 340 nM		> 25000 nM	1.73 ± 0.18 nM	80.2 ± 3.28 nM			
CCc1nc(N)nc(N)c1OCCc1cn(-c2ccc(C(=O)OC)cc2)nn1 [Compound 21]	0.48 ± 0.1 nM	> 25000 nM	490 ± 70 nM		> 25000 nM	8.56 ± 1.46 nM	1060 ± 89.5 nM			
CCc1nc(N)nc(N)c1OCCc1cn(-c2ccc(C(=O)O)cc2)nn1 [Compound 22]	0.26 ± 0.04 nM	> 50000 nM	620 ± 180 nM	High	> 50000 nM	4.64 ± 0.6 nM				
CCc1nc(N)nc(N)c1OCCCc1cn(-c2cccc(C(=O)O)c2)nn1 [Compound 23]	0.25 ± 0.02 nM	320 ± 120 nM	6.4 ± 0.5 nM		> 25000 nM	0.42 ± 0.06 nM	22.7 ± 2.76 nM			
CCc1nc(N)nc(N)c1OCCCc1cn(-c2ccc(C(=O)OC)cc2)nn1 [Compound 24]	0.15 ± 0.02 nM				> 2000 nM	1.9 ± 0.08 nM	19 ± 1.92 nM	> 2000 nM	55 ± 6 nM	
CCc1nc(N)nc(N)c1OCCCc1cn(-c2ccc(C(=O)O)cc2)nn1 [Compound 25]	0.35 ± 0.04 nM				6400 ± 1080 nM	3.52 ± 0.73 nM	44.8 ± 1.92 nM	4650 ± 120 nM	36 ± 10 nM	
CCc1nc(N)nc(N)c1OCc1cn(Cc2cccc(C(=O)O)c2)nn1 [Compound 26]	19.5 ± 1.06 nM	> 25000 nM	> 25000 nM	High	> 25000 nM	388 ± 26.2 nM				
CCc1nc(N)nc(N)c1OCc1cn(Cc2cc(F)c(O)c(F)c2)nn1 [Compound 27]	9.41 ± 0.85 nM	> 50000 nM	16100 ± 6020 nM	High	> 50000 nM	285 ± 14.1 nM				
CCc1nc(N)nc(N)c1OCc1cn(Cc2ccc(O)cc2)nn1 [Compound 28]	53.7 ± 5.6 nM	> 1000 nM	> 1000 nM	High	> 1000 nM					High
CCc1nc(N)nc(N)c1OCc1cn(Cc2ccc(C(=O)O)cc2)nn1 [Compound 29]	14.5 ± 1.62 nM	> 25000 nM	> 25000 nM	High	> 25000 nM	477 ± 32.3 nM				
CCc1nc(N)nc(N)c1OCCc1cn(Cc2ccc(O)cc2)nn1 [Compound 30]	8.86 ± 0.8 nM	> 50000 nM	12400 ± 4710 nM	High	> 50000 nM	756 ± 62.6 nM				
CCc1nc(N)nc(N)c1OCCCc1cn(Cc2ccc(C(=O)O)cc2)nn1 [Compound 32]	0.36 ± 0.02 nM	3750 ± 430 nM	87 ± 30 nM		> 50000 nM	4.72 ± 0.77 nM	54.3 ± 1.05 nM			
CCc1nc(N)nc(N)c1OCc1cc(-c2ccccc2)no1 [Compound 33]	0.51 ± 0.08 nM	15700 ± 4480 nM	670 ± 130 nM		> 25000 nM	38.1 ± 6.27 nM	1480 ± 68.9 nM			
CCc1nc(N)nc(N)c1OCc1cc(-c2ccc(F)cc2)no1 [Compound 34]	1.01 ± 0.05 nM				> 25000 nM	77.6 ± 14.8 nM	1080 ± 93.7 nM	18900 ± 4440 nM	1600 ± 790 nM	
CCc1nc(N)nc(N)c1OCc1cc(-c2ccc(Cl)cc2)no1 [Compound 35]	0.95 ± 0.02 nM				> 25000 nM	65 ± 11.9 nM	1170 ± 130 nM	20900 ± 4080 nM	2500 ± 340 nM	
CCc1nc(N)nc(N)c1OCc1cc(-c2ccc(Br)cc2)no1 [Compound 36]	1.03 ± 0.2 nM	17500 ± 2960 nM	2860 ± 560 nM		> 25000 nM	64.6 ± 1.16 nM	1350 ± 104 nM			
CCc1nc(N)nc(N)c1OCc1cc(-c2cccc(C(F)(F)F)c2)no1 [Compound 37]	2.12 ± 0.18 nM	20200 ± 1370 nM	3260 ± 810 nM		37100 ± 1810 nM	106 ± 17.3 nM	> 100000 nM			
CCc1nc(N)nc(N)c1OCc1cc(-c2cccc(OC)c2)no1 [Compound 38]	0.55 ± 0.1 nM	> 25000 nM	570 ± 190 nM		> 25000 nM	22.8 ± 3.09 nM	1080 ± 31 nM			

Structure (SMILES)	Ki [1]	IC50 [2, 7]	IC50 [3, 8]	Ki hDHFR [4]	IC50 [5]	Ki [6]	Ki [4]	IC50 [2]	IC50 [3]	Ki pfDHFR N51I + C59R + S108N + I164L (QM) ([6]; quadruple mutant pfDHFR, hydrochloride salts)
CCc1nc(N)nc(N)c1OCc1cc(-c2cccc([N+](=O)[O-])c2)no1 [Compound 39]	1.33 ± 0.17 nM	9080 ± 1050 nM	1160 ± 550 nM		> 50000 nM	49 ± 6.73 nM	> 100000 nM			
CCc1nc(N)nc(N)c1OCc1cc(-c2cccc(C(=O)O)c2)no1 [Compound 40]	1.28 ± 0.13 nM	3380 ± 1060 nM	280 ± 130 nM		> 50000 nM	2.12 ± 0.17 nM	279 ± 24.7 nM			
CCc1nc(N)nc(N)c1OCc1cc(-c2ccc(OC)cc2)no1 [Compound 42]	1.15 ± 0.18 nM	> 25000 nM	1190 ± 360 nM		> 25000 nM	64.4 ± 7.59 nM	1660 ± 76.7 nM			
CCc1nc(N)nc(N)c1OCc1cc(-c2ccc([N+](=O)[O-])cc2)no1 [Compound 43]	4.02 ± 0.57 nM	> 50000 nM	33200 ± 14200 nM		> 50000 nM	306 ± 36.5 nM	> 100000 nM			
CCc1nc(N)nc(N)c1OCc1cc(-c2ccc(C(=O)O)cc2)no1 [Compound 44]	3.75 ± 0.31 nM	> 10000 nM	7770 ± 1470 nM		> 10000 nM	245 ± 34.6 nM	> 100000 nM			
CCc1nc(N)nc(N)c1OCCCc1cc(-c2ccc(Cl)cc2)no1 [Compound 45]	1.99 ± 0.43 nM	6370 ± 1970 nM	270 ± 80 nM		> 50000 nM	3.9 ± 0.68 nM	37 ± 5.36 nM			
CCc1nc(N)nc(N)c1OCCCc1cc(-c2cccc(C(F)(F)F)c2)no1 [Compound 46]	0.39 ± 0.03 nM				10500 nM	1.74 ± 0.14 nM	26.12 ± 0.24 nM	17700 ± 4740 nM	130 ± 40 nM	
CCc1nc(N)nc(N)c1OCCCc1cc(-c2cccc(C#N)c2)no1 [Compound 47]	0.27 ± 0.03 nM				560 nM	1.02 ± 0.07 nM	21.4 ± 0.91 nM	5510 ± 470 nM	40 ± 7 nM	
CCc1nc(N)nc(N)c1OCCCc1cc(-c2cccc(C(=O)OC)c2)no1 [Compound 48]	0.26 ± 0.07 nM	100 ± 30 nM	45 ± 1.5 nM		760 nM	0.87 ± 0.15 nM	25.2 ± 8.9 nM			
CCc1nc(N)nc(N)c1OCc1coc(-c2ccccc2)n1 [Compound 50]	1.33 ± 0.07 nM	13700 ± 4080 nM	2250 ± 710 nM		> 50000 nM	55.6 ± 8.79 nM	292 ± 22.2 nM			
CCc1nc(N)nc(N)c1OCc1coc(-c2cccc(C)c2)n1 [Compound 51]	0.44 ± 0.05 nM	21900 ± 5880 nM	830 ± 50 nM		75900 ± 11000 nM	48 ± 1.54 nM	256 ± 9.25 nM			
CCc1nc(N)nc(N)c1OCc1coc(-c2cccc([N+](=O)[O-])c2)n1 [Compound 52]	2.63 ± 0.26 nM	15100 ± 1490 nM	2660 ± 310 nM		> 50000 nM	93.2 ± 25 nM	> 100000 nM			
CCc1nc(N)nc(N)c1OCc1coc(-c2cccc(OCC(=O)OCc3ccccc3)c2)n1 [Compound 53]	0.83 ± 0.08 nM	> 10000 nM	1760 ± 670 nM		> 10000 nM	45.5 ± 5.02 nM	681 ± 70.3 nM			
CCc1nc(N)nc(N)c1OCc1coc(-c2cccc(OCC(=O)O)c2)n1 [Compound 54]	1.19 ± 0.15 nM	> 50000 nM	3820 ± 210 nM		> 50000 nM	261 ± 19 nM	540 ± 25.2 nM			
CCc1nc(N)nc(N)c1OCc1coc(-c2ccc(Cl)cc2)n1 [Compound 55]	1.14 ± 0.17 nM	> 25000 nM	870 ± 110 nM		> 25000 nM	32.9 ± 4.13 nM	> 100000 nM			
CCc1nc(N)nc(N)c1OCc1coc(-c2ccc(OCC(=O)OCc3ccccc3)cc2)n1 [Compound 56]	0.81 ± 0.07 nM	23300 ± 2470 nM	580 ± 220 nM		> 100000 nM	46.7 ± 4.68 nM	> 100000 nM			
CCc1nc(N)nc(N)c1OCc1coc(-c2ccc(OCC(=O)O)cc2)n1 [Compound 57]	0.84 ± 0.08 nM	> 50000 nM	730 ± 170 nM		> 50000 nM	78 ± 6.44 nM	716 ± 78.3 nM			
CCc1nc(N)nc(N)c1OCCc1coc(-c2ccccc2)n1 [Compound 58]	0.55 ± 0.02 nM				5590 ± 1840 nM	4.63 ± 0.22 nM	20.4 ± 2.1 nM	53100 ± 15200 nM	48 ± 21 nM	
